Data reported in patent publication US20090117083A1, “IMMUNOMODULATORY ALKALOIDS” (M N L PHARMA LIMITED, priority 2004, published 2009).

Assays:
[1] = tested on: Na^+-dependent D-glucose uptake; experiment: Na+-dependent D-glucose uptake into intestinal brush border membrane vesicles; format: biochemical, ovine
β-D-glucosidase = experiment: Glycosidase inhibition: β-D-glucosidase, almond; format: biochemical, Almonds (Prunus sp.)
Procedure, shortened: (§1)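 Each glycosidase was incubated with inhibitor and its p-nitrophenyl substrate (3.57 mM final) in McIlvaine citrate/phosphate buffer at the enzyme's optimum pH, 20° C. Reactions were stopped with 0.4M glycine pH 10.4 within the exponential phase and p-nitrophenol read at 405 nm against water blanks.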

dendritic cells = experiment: Induction of IL-12 secretion in dendritic cells (ELISA); format: cell-based, BALB/c mice; conditions: casuarine alone, absence of LPS; 1 μg/ml versus 40 μg/ml
α-L-fucosidase = target: T1, α-L-fucosidase (Bos taurus, UniProt Q2KIM0); experiment: Glycosidase inhibition: α-L-fucosidase; format: biochemical, Bovine; conditions: 1 mg/ml; read-out: % inhibition, fucosidase
T1 construct: purchased Sigma
T1 sequence (Q2KIM0 23-468): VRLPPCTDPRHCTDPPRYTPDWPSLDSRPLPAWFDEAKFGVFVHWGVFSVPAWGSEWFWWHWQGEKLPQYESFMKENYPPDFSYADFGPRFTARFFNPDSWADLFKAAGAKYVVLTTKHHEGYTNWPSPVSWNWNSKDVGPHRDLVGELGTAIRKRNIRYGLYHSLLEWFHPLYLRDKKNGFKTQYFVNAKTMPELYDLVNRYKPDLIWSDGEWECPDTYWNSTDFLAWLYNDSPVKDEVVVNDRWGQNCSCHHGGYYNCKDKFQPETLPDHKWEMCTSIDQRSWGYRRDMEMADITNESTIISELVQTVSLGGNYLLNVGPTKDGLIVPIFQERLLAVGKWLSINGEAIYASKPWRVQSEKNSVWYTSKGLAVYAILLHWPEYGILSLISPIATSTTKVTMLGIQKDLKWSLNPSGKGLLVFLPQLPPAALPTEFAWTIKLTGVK
Procedure, shortened: as §1

α-D-glucosidase = experiment: Glycosidase inhibition: α-D-glucosidase, Bacillus; format: biochemical, Bacillus stearothermophilus; conditions: 1 mg/ml
Procedure, shortened: as §1

MCF-7 cells = experiment: Effect on glycosylation of breast cancer cells (N-glycan HPLC); format: cell-based; conditions: 0.75 mM, 62 and 86 hour time points
Description: MCF-7 cells (European Collection of Cell Cultures Ref. 86012803) were taken from liquid nitrogen stock, thawed at room temperature and transferred to 10 ml Dulbeccos Modified Eagle's Medium with Hams F12, 15 mM Hepes and L-glutamine (DMEM: Cambrex Cat. No. BE12-719F) supplemented with 10% v/v foetal calf serum (FCS: BioWest Labs Cat. No. S02755, Lot. No. S1800). The FCS was pre-filtered through a 0.2 μm sterile filter.
The cells were then centrifuged at 1,500 rpm in a Centaur bench-top centrifuge and the supernatant removed. The cells were reconstituted in fresh media and seeded into two T75 cm^3 Nunclon tissue culture flasks and allowed to settle overnight at 37° C. in a 5% CO2 incubator. The flasks were wrapped in cling film to prevent cross-contamination and the following day the media was changed to include the antibiotics penicillin and streptomycin as a precautionary measure against infection (at concentrations of 1 mg/cm^3 and 5 mg/cm^3, respectively). […]
The cells were harvested using a non-enzymatic method. At each of the time points the cells were viewed under the inverted light microscope and the morphology evaluated. […] The number of cells was then counted in a haemocytometer and cell viability evaluated by mixing 0.1 cm^3 of each cell suspension with a drop of trypan blue solution. […]
Evaluated using the BioRad protein assay according to the manufacturer's instructions. […]

B16G/F10 melanoma cells = experiment: B16/F10 melanoma lung colonies in mice; format: in vivo, C57BL/6 mice; conditions: for Colony Count: Day 21, mean ± s.e.m.; for % Reduction: versus vehicle
Description: There were 5 treatment groups in the study, with 6 mice arbitrarily allocated to each group. The treatment groups were as follows:
The dose volume was the daily intake for all animals. Test substances were administered to mice in Groups 2, 3, 4 and 5, as solutions in sterile water for 41 h 32 min prior to tumour cell injection (Day 0 is the day of tumour cell injection).
Mice were injected intravenously, via a tail vein, with 0.1 ml of a suspension of B16G/F10 melanoma cells (approximately 1×10^5 cells/mouse) on Day 0.
All dosing solutions were prepared on the first day of dosing (Day −2) and were kept at room temperature.
Mice: Female C57BL/6 mice were supplied and delivered by Charles River UK Limited. The animals were approximately 6-8 weeks of age on arrival. The animals were acclimatized for 29 days prior to the start of the study, and the body weights at the start of dosing were in the range 18-23 g. During the study, the animals were housed in groups of up to 6 in pediatric filter-topped cages with sawdust bedding (autoclaved for sterility). The room and cages were cleaned at regular intervals each week to maintain hygiene. The mice were fed an expanded rodent diet of RM1(E) SQC (batch number 3822; Special Diets Services, Witham, UK) ad libitum and allowed access to sterilized water (N.V. Nutricia, Zoetermeer, The Netherlands). For Groups 2, 3, 4 and 5, the drinking water also contained the appropriate level of test substance for the duration of the dosing period. […] During the acclimatization and study period the temperature range in the rooms was 18-22° C. and the humidity range was 44-79%.
Tumour challenge: B18F10 murine tumour cells (Shrayer D, Bogaars H. Hearing V. J. Maizel A. & Wanebo H. Further characterization of a clinically relevant model of melanoma metastasis and an effective vaccine. Cancer Immunology, Immunotherapy 1995: 40; 277-282) were harvested from sub-confluent cultures growing in vitro, using minimum trypsination. They were washed in sterile phosphate buffered saline (PBS) and the number of viable cells determined. Cells were resuspended in sterile PBS at a concentration of […]. The mice were intravenously injected, via a tail vein, with 0.1 ml of cell suspension (i.e. approximately 1×10^5 cells/mouse) on Day 0. The mice were examined daily for signs of laboured breathing or distress due to extensive metastatic disease. Mice were exposed to the appropriate test substance for 41 h 32 min prior to tumour cell injection (from Day −2 to Day 0). Following tumour cell implant, the test substances were removed, and animals in all groups received drinking water alone for the remainder of the study.
Sampling and analysis: The animals were terminated on Day 21 (21 days after injection of the tumour cells). Blood samples were taken from 3 mice from each group on the day of termination. Animals were anaesthetized with carbon dioxide and blood samples of maximal volume taken by cardiac puncture and collected in plain tubes. Samples were left to clot at room temperature for a minimum of 1 h prior to serum removal, Serum samples were stored at approximately −70° C. prior to analysis. Immediately after performing the bleeds, the spleens were removed from the 3 selected mice. The spleens from these mice were pooled in a petri dish with approximately 3-5 ml of RPMI 1640 tissue culture medium (batch number 3092202; Invitrogen, Paisley, UK) containing 0.52% penicillin/streptomycin (Pen/Strep; batch number 44K2412; Sigma Aldrich, Poole, UK) prior to splenocyte isolation. The spleens from each group were placed in a glass homogeniser with an additional 10-15 ml of medium and homogenised until opaque. The suspension was then placed in a 50 ml centrifuge tube. On occasions when there was significant cell debris, this was allowed to settle before removing the suspension and placing in a fresh tube. The homogenate was then centrifuged at approximately 200×‘g’ for 5 min at approximately 4° C.

## OC[C@@H]1[C@@H](O)[C@H](O)[C@H]2[C@H](O)[C@@H](O)CN21 [casuarine (8)]
[1]; initial rate, competition with labelled D-glucose, control 240
  Glucose uptake: 265 pmol/s/mg
[1]; versus control
  glucose transport, effect: slightly stimulated
β-D-glucosidase; 800 μM
  inhibition of almond β-D-glucosidase: not being inhibitory
β-D-glucosidase; 1 mg/ml
  % inhibition, glucosidase: 0%
Dendritic cells
  induction of IL-12 secretion, dose response: higher at low doses than high
α-L-fucosidase
  inhibition at 1000 µg/mL: -1%
α-D-glucosidase
  % inhibition, gluc (Bacillus): 86%
MCF-7 cells
  glycan synthesis and/or N-linked glycosylation in breast cancer cells: can inhibit glycan synthesis and/or N-linked glycosylation
B16G/F10 melanoma cells; 0.03 μg/ml in drinking water before tumour cell injection
  Colony Count: 17.00 ± 6.97
B16G/F10 melanoma cells; 0.03 μg/ml in drinking water
  % Reduction: 76%
B16G/F10 melanoma cells; 3 μg/ml in drinking water before tumour cell injection
  Colony Count: 35.40 ± 7.47
B16G/F10 melanoma cells; 3 μg/ml in drinking water
  % Reduction: 49%
B16G/F10 melanoma cells; 0.3 mg/ml in drinking water before tumour cell injection
  Colony Count: 38.50 ± 11.49
B16G/F10 melanoma cells; 0.3 mg/ml in drinking water
  % Reduction: 45%
